Entries after “also recorded” stand apart in the source; their conditions may differ.
How the values were obtained:
MV4-11 (MLL-AF4) cells = assay: Combination proliferation assay with Compound A2 (CellTiter-Glo, Chou-Talalay CI); type: cell-based, human
In short: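 Viability by CellTiter-Glo ATP luminescence; fraction affected versus DMSO controls; combination index by Chou-Talalay method (CI <1 synergy, >1 antagonism).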

[1] = system: SKM-1 (non-MLL-rearranged AML) cells; assay: as above; type: cell-based, human
Experimental: (§1) Graphs representing values of combination index (CI) versus Fractional effect (Fa) known as Fa-CI plots were generated and synergy was evaluated.
(§2) Viability was determined using CellTiter-Glo® (Promega).
MV4-11 cells were maintained in IMDM supplemented with 10% fetal bovine serum. MOLM-13 and SKM-1 cells were maintained in Roswell Park Memorial Institute medium (RPMI) supplemented with 10% fetal bovine serum. They were cultured in flasks or plates in a humidified 5% CO2 atmosphere.
Proliferation studies were performed using MOLM-13, MV4-11 and SKM-1 cell lines in vitro to evaluate the cancer cell killing effect of a combination of two agents together on cell growth. Initial proliferation studies were performed to determine the IC50 values of a given compound in each cell line. The cell counts were measured by ATP quantitation using the Promega Cell Titer Glo kit and luminescence values correspond to the amount of ATP in a given well.
Compounds evaluated for synergy in the co-treatment phase were tested in a range which was bracketed around the IC50's. The compounds were plated to a 96 well plate in a matrix format which includes increasing concentrations of each drug in the combination in a constant ratio, in addition to the effect of each compound alone in the study. Cells were seeded and grown in the log-linear phase for 3 or 7 days in the cotreatment phase. Maximum and minimum inhibition (DMSO alone) controls were used in each plate to calculate fraction affected (Fa) of a test well. DMSO concentration was kept at 0.1% v/v. The drug combination analysis was performed utilizing the Chou-Talalay method. Synergy was determined using the software package Calcusyn by Biosoft. The combination index (CI) is the term used to describe the level of synergy or antagonism in a given test system. A combination index less than one indicates synergy, and a CI greater than one indicates antagonism.
The drug combination analysis was performed using the Chou-Talalay method. Graphs representing values of combination index (CI) versus Fractional effect (Fa) known as Fa-CI plots were generated and synergy was evaluated.

MOLM-13 (MLL-AF9) cells [2] = assay: as above; type: cell-based, human; conditions: for Combination effect, reverse order of addition with Ara-C washout: washed out, then Compound A2 7 days; for Combination effect with Compound A2 (Table 2): MOLM-13 MLL-AF9
In short: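 Viability by CellTiter-Glo ATP luminescence; fraction affected versus DMSO controls, combination index by Chou-Talalay (CI <1 synergy, >1 antagonism).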

MOLM-13 cells [3] = assay: CD11b and CD14 differentiation marker expression by flow cytometry; type: cell-based, human; conditions: single agents
Experimental: (§3) A Guava EasyCyte HT™ flow cytometer was used to measure DNA content, Annexin V staining and cell surface expression of CD14 and CD11b markers on Days 10 and 14.
(§4) On Day 0 MOLM-13 cells are seeded at 3,000 cells/mL. On Day 7 and Day 10 MOLM-13 cells are counted and reseeded at 50,000 cells/mL. […] On Day 10 They were redosed again. On Day 14 the experiment was terminated. Cells were sampled for CD14 and CD11b analysis on Days 7, 10 and 14.
On day 7, 10, and 14, cells were collected for analysis. The cells were prepared by washing twice in PBS, followed by fixation in 4% formaldehyde for ten minutes at 37° C. After fixation cells were washed and blocked with blocking buffer for 10 minutes at room temperature. Cells were then incubated in presence of anti-CD14, anti-CD11b or anti-IgG antibody for 1 hour at room temperature while rotating. Cells were washed, re-suspended in PBS and 5,000 events were analyzed using ExpressPro software on the GuavaCyte Plus System.

MOLM-13 cells [4] = assay: Flow cytometric analysis of cell cycle and Annexin V (apoptosis); type: cell-based, human
Experimental: as §3, §4
To evaluate the fraction of cells in each cell cycle, flow cytometric analysis was performed. FACS analysis for detection of cell death by apoptosis, and cell cycle was performed.
Cells were harvested on days 7, 10 and 14 and split to allow simultaneous analysis of cell cycle and Annexin V staining. Apoptosis was determined using the Guava Nexin Assay (Millipore 4500-0450) and cells were prepared according to the manufacturer's recommendations. Samples were analyzed using the Guava EasyCyte Plus System (Millipore). Cells for cell cycle analysis were pelleted by centrifugation at 200×g for 5 minutes at 4° C., washed twice with ice cold PBS then fixed with 70% ice cold ethanol. All samples were analyzed together at end of experiment. Following fixation cells were washed with PBS and stained with the Guava cell cycle reagent (Millipore 4500-0220) for 30 minutes. Samples were analyzed using the Guava EasyCyte Plus System (Millipore).

EOL-1 (MLL-PTD) cells = assay: Combination proliferation assay with Compound A2 (Chou-Talalay CI); type: cell-based, human; conditions: EOL-1 (MLL-PTD)
Experimental: as §1, §2

KOPM-88 (MLL-PTD) cells = assay: as above; type: cell-based, human; conditions: KOPM-88 (MLL-PTD)
Experimental: as §1, §2

[5] = system: OCI-AML-4 (MLL-ENL) cells; assay: Example 7 primary screen: 300 nM EPZ-5676 pre-treatment, second compound 72 h, ATPLite, GI100 shift; type: cell-based; conditions: 264 h; OCI-AML-4; single agent; read-out: EPZ-5676 11-day (Primary screen) IC50
Experimental: (§5) Cells were split using EPZ-5676 or DMSO containing growth media and further incubated for an additional 3-day pre-treatment time. Cells were finally seeded in growth media containing EPZ-5676 or DMSO in 384-well plates at 500 cell/well density. Cells were then equilibrated in incubators for 24 hours before treatment with a second compound. Treated assay plates were incubated with a second compound for 72 hours. After this time, plates were developed for endpoint analysis using ATPLite to measure ATP content, which is used as an indicator of cell viability.
(§6) “N/D” means the GI100 of the second compound could not be determined for both conditions and “-” means not tested.
(§7) Growth Inhibition (GI) as a measure of cell viability: The cell viability of vehicle was measured at the time of dosing the second agent (T0) and after seventy-two hours (T72). A GI reading of 0% represents no growth inhibition—cells treated with test compound as compared to T72 vehicle signals were measured. […] A GI 200% represents complete death of all cells in the culture well. Compounds reaching an activity plateau of GI 200% are considered cytotoxic. GI is calculated by applying the following test and equation: […]

THP-1 (MLL-AF9) cells = assay: Example 7 retest: EPZ-5676 pre-treatment, second compound 72 h, Cell Titer Glo, growth inhibition; type: cell-based; conditions: 240 h, single agent, read-out: EPZ-5676 10-day IC50
ML-2 (MLL-AF6) cells = assay: as above; type: cell-based; conditions: 240 h, single agent, read-out: EPZ-5676 10-day IC50
SKM-1 (non-MLLr) cells [6] = assay: as above; type: cell-based; conditions: Homo sapiens, 240 h, single agent
RS4-11 (MLL-AF4) cells = assay: as above; type: cell-based; conditions: Homo sapiens, 240 h, single agent, read-out: EPZ-5676 10-day IC50
SKM-1 (non-MLLr) cells [7] = assay: Example 7 primary screen: 300 nM EPZ-5676 pre-treatment, second compound 72 h, ATPLite, GI100 shift; type: cell-based, human; conditions: Homo sapiens, 264 h; SKM-1; single agent; read-out: EPZ-5676 11-day (Primary screen) IC50
Experimental: as §5, §6, §7

MOLM-13 (MLL-AF9) cells [8] = assay: as above; type: cell-based, human; conditions: Homo sapiens, 264 h; MOLM-13; single agent; read-out: EPZ-5676 11-day (Primary screen) IC50
Experimental: as §5, §6, §7

[9] = system: OCI-AML-4 (MLL-ENL) cells; assay: Example 7 retest: EPZ-5676 pre-treatment, second compound 72 h, Cell Titer Glo, growth inhibition; type: cell-based; conditions: 240 h, single agent
MOLM-13 (MLL-AF9) cells [10] = assay: as above; type: cell-based; conditions: Homo sapiens, 240 h, single agent
[11] = 14 day treatment, 156 nM Compound A2 or 63 nM Ara-C

Nc1ccn([C@@H]2O[C@H](CO)[C@@H](O)[C@@H]2O)c(=O)n1 [Ara-C, cytarabine]
Combination effect with Compound A2 (MV4-11 (MLL-AF4) cells; MV4-11, 7 Day Cotreatment (Example 1)): Synergy (A combination index less than one indicates synergy)
Antiproliferative combination effect after Compound A2 washout (MV4-11 (MLL-AF4) cells; MV4-11, Compound A2 washed out prior to addition of the SOC agent): maintained
Antiproliferative combination effect with Compound A2 (MV4-11 (MLL-AF4) cells; MV4-11, pre-treatment model, no Compound A2 washout): synergistic
Combination effect with Compound A2 (Table 2) (MV4-11 (MLL-AF4) cells; MV4-11 MLL-AF4): synergistically
Combination effect with Compound A2 (Table 2) ([1]; SKM-1 AML: Non-rearranged): did not act synergistically
Effect of Compound A2 on antiproliferative activity of the second agent ([1]; SKM-1 non-MLL-rearranged (Example 5)): did not affect
Combination effect with Compound A2 (Table 4) (MOLM-13 (MLL-AF9) cells [2]; MOLM-13 (MLL-AF9), 7 Day Cotreatment Model): Strong Synergy
Combination effect with Compound A2 (MOLM-13 (MLL-AF9) cells [2]; MOLM-13, 4 + 3 Model (4 days Compound A2 pretreatment, then 3 days co-treatment)): Synergy (A combination index less than one indicates synergy)
Combination effect with Compound A2 (MOLM-13 (MLL-AF9) cells [2]; MOLM-13, 7 Day Cotreatment (Example 1)): Synergy (A combination index less than one indicates synergy)
Combination effect, reverse order of addition (MOLM-13 (MLL-AF9) cells [2]; MOLM-13, Ara-C 3 days, then Compound A2 and Ara-C co-treatment 7 days): Synergy (Drug synergy was statistically defined by CI values less than 1)
Combination effect, reverse order of addition with Ara-C washout (MOLM-13 (MLL-AF9) cells [2]; MOLM-13, Ara-C 3 days): Combination benefit is maintained
Combination effect, reverse order of addition with Ara-C washout (MOLM-13 (MLL-AF9) cells [2]; MOLM-13, Ara-C 3 days, listed as cytarabine): essentially the same level of synergistic cell killing
Antiproliferative combination effect after Compound A2 washout (MOLM-13 (MLL-AF9) cells [2]; MOLM-13, Compound A2 washed out prior to addition of the SOC agent): durable combination benefit; also recorded: maintained
Antiproliferative combination effect with Compound A2 (MOLM-13 (MLL-AF9) cells [2]; MOLM-13, pre-treatment model, no Compound A2 washout): synergistic
Combination effect with Compound A2 (Table 2) (MOLM-13 (MLL-AF9) cells [2]): Synergy (Drug synergy was statistically defined by CI values less than 1)
Combination effect with Compound A2 (Table 2) (MOLM-13 (MLL-AF9) cells [2]; listed as cytarabine): synergistically
Differentiation markers CD11b and CD14 (MOLM-13 cells [3]): time and concentration dependent up-regulation
Apoptosis in combination with Compound A2 (MOLM-13 cells [4]; 156 nM Compound A2 + 63 nM Ara-C): enhance apoptosis
Sub-G1 cell population in combination with Compound A2 (MOLM-13 cells [4]; 156 nM Compound A2 + 63 nM Ara-C, at 10 and 14 days): significant increase
Apoptotic cell population, single agent (MOLM-13 cells [4]; [11]): modest increase
Sub-G1 cell population, single agent (MOLM-13 cells [4]; [11]): minimal effect
Combination effect with Compound A2 (Table 3) (EOL-1 (MLL-PTD) cells): Synergy (Drug synergy was statistically defined by CI values less than 1)
Combination effect with Compound A2 (Table 3) (KOPM-88 (MLL-PTD) cells): Synergy (Drug synergy was statistically defined by CI values less than 1)

CC(C)N(C[C@H]1O[C@@H](n2cnc3c(N)ncnc32)[C@H](O)[C@@H]1O)[C@H]1C[C@@H](CCc2nc3cc(C(C)(C)C)ccc3[nH]2)C1 [Compound A2, pinometostat]
IC50 [5]: > 3 µM
IC50 (THP-1 (MLL-AF9) cells): > 3 µM
IC50 (ML-2 (MLL-AF6) cells): > 3 µM
Combination effect with T0070907 (PPAR antagonist) (MOLM-13 (MLL-AF9) cells [2]; MOLM-13, co-treatment model (Example 8)): Synergy (Drug synergy was statistically defined by CI values less than 1)
IC50 (SKM-1 (non-MLLr) cells [6]; SKM-1 (non-MLLr), read-out: EPZ-5676 10-day IC50): > 3 µM
IC50 (SKM-1 (non-MLLr) cells [6]; SKM-1, read-out: EPZ-5676 10-day (Retest) IC50): > 3 µM
IC50 (RS4-11 (MLL-AF4) cells): > 3 µM
IC50 (SKM-1 (non-MLLr) cells [7]): > 3 µM
IC50 (MOLM-13 (MLL-AF9) cells [8]): 0.15 µM
IC50 ([9]; OCI-AML-4 (MLL-ENL), read-out: EPZ-5676 10-day IC50): > 3 µM
IC50 ([9]; OCI-AML-4, read-out: EPZ-5676 10-day (Retest) IC50): > 3 µM
IC50 (MOLM-13 (MLL-AF9) cells [10]; MOLM-13 (MLL-AF9), read-out: EPZ-5676 10-day IC50): 0.075 µM
IC50 (MOLM-13 (MLL-AF9) cells [10]; MOLM-13, read-out: EPZ-5676 10-day (Retest) IC50): 0.075 µM
